Results as given in paper PMC5626787, “Mouse Nudt13 is a Mitochondrial Nudix Hydrolase with NAD(P)H Pyrophosphohydrolase Activity” (The Protein Journal, 2017).

Target: T1, Nudt13 (Mus musculus, UniProt Q8JZU0)
T1 construct: baculovirus, High Five insect cells
T1 sequence (Q8JZU0 1-352): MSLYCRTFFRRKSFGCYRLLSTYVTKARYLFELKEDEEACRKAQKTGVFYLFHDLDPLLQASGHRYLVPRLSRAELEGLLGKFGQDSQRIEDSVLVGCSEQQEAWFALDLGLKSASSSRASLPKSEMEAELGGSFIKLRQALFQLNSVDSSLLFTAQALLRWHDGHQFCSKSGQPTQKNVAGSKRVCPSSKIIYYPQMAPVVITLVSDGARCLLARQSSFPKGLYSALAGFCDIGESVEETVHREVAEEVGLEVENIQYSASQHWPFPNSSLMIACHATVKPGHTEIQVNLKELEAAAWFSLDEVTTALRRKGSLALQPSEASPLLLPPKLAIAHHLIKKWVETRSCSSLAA
Assay: HPLC product analysis, non-linear regression, Michaelis-Menten
Format: biochemical
Conditions: 2 mM Mn2+, 50 mM Tris-HCl pH 8.0, 1 mM dithiothreitol, 37 °C; hydrolysis to NMNH and AMP
Experimental: HPLC product analysis, non-linear regression, Michaelis-Menten on Nudt13 | K m and k cat values were determined for NADH under optimal assay conditions

## NC(=O)C1=CN([C@@H]2O[C@H](COP(=O)(O)OP(=O)(O)OC[C@H]3O[C@@H](n4cnc5c(N)ncnc54)[C@H](O)[C@@H]3O)[C@@H](O)[C@H]2O)C=CC1 [NADH]
  Km: 340 µM
